Tests used:
AGS [1] = experiment: Proliferation inhibition, sulforhodamine B assay; assay type: cell-based; conditions: Homo sapiens, 48 hours treatment
Experimental: (§1) In order to examine the proliferation inhibitory effects of gossypol against stomach cancer cell lines, 6 different stomach cancer cell lines (MKN28, MKN45, AGS, SNU668, Kato3 and HS746T) were prepared. The definition of cell lines known in the Korean Cell Line Bank or the American Type Culture Collection (ATCC) is described in Table 1 below.
(§2) Each of the 6 different cell lines (1×10^3 to 1×10^4 cells/well) was cultured in a 96-well plate for 24 hours, and treated with 0, 10, 20, 40 or 60 μM of gossypol, and then further cultured for 48 hours.

HS746T [2] = experiment: Proliferation inhibition, sulforhodamine B assay; assay type: cell-based; conditions: Homo sapiens, 48 hours treatment
Experimental: as §1, §2

Kato3 = experiment: Proliferation inhibition, sulforhodamine B assay; assay type: cell-based; conditions: Homo sapiens, 48 hours treatment
Experimental: as §1, §2

MKN28 [3] = experiment: Proliferation inhibition, sulforhodamine B assay; assay type: cell-based; conditions: Homo sapiens, MKN-28, 48 hours treatment
Experimental: as §1, §2

MKN45 [4] = experiment: Proliferation inhibition, sulforhodamine B assay; assay type: cell-based; conditions: Homo sapiens, MKN-45, 48 hours treatment
Experimental: as §1, §2

SNU668 = experiment: Proliferation inhibition, sulforhodamine B assay; assay type: cell-based; conditions: Homo sapiens, 48 hours treatment
Experimental: as §1, §2

[5] = system: stomach cancer cell lines (MKN28, MKN45 and SNU668); experiment: ATP synthesis inhibition (Promega ATP assay kit); assay type: cell-based, Human; conditions: 0, 10 or 20 μM of gossypol, 48 hours
Experimental: ATP (adenosine triphosphate) is an energy source for organisms, and inhibition of intracellular ATP synthesis leads to a decrease in energy metabolism activity. The ATP synthesis inhibitory effects of gossypol on the stomach cancer cell lines (MKN28, MKN45 and SNU668) described in Example 1-1 were examined.
Each of MKN28, MKN45 and SNU668 cell lines (1×10^3 to 1×10^4 cells/plate) was cultured in a 60 mm culture dish for 24 hours, treated with 0, 10 or 20 μM of gossypol, and then additionally cultured for 48 hours. Next, the cells were harvested, counted, diluted in 100 μl of RPMI buffer containing 10 vol % FBS, and then transferred to each well of 96-well plate. To each well containing the cells, 100 μl of assay buffer (rL/L reagent+reconstitution buffer) in the Promega ATP assay kit (G7572, Promega, […]., USA) was added, after which the emission of fluorescence was determined by measuring the absorbance at 560 nm.

[6] = system: MKN28 (moderately differentiated cells); experiment: Cell death, Annexin V+PI staining, FACS; assay type: cell-based, Human
Experimental: (§3) Each of MKN28 (moderately differentiated cells) and MKN45 (poorly differentiated cells) cell lines (1×10^3 to 1×10^4 cells/plate), described in Example 1-1 above, was cultured in a 100 mm culture dish for 24 hours, and treated with 0, 5, 10 or 20 μM of gossypol, and then diluted in 400 μl of binding buffer (0.1 M Hepes, pH 7.4, 1.4 M NaCl, and 25 mM CaCl2)). The control cells treated with 0 μM of gossypol were divided into four groups which were not stained, stained with Annexin V, stained with PI (propidium iodide) and stained with Annexin V+PI, respectively, and the cells treated with 5, 10 or 20 μM of gossypol were stained with Annexin V+PI. Staining of the cells was performed in a dark room for 10 minutes. The stained cells were subjected to fluorescence activated cell sorting (FACS), thereby determining the ratio of dead cells to total cells. The results are shown in FIGS. 3 and 4 (BD Biosciences, #556547).

[7] = system: MKN45 (poorly differentiated cells); experiment: Cell death, Annexin V+PI staining, FACS; assay type: cell-based, Human
Experimental: as §3

AGS [8] = experiment: Cell cycle analysis, PI staining, FACS; assay type: cell-based, Human; conditions: 10 μM gossypol, 24 hours
Experimental: (§4) Each of the 6 different stomach cancer cells lines (MKN28, MKN45, AGS, SNU668, Kato3 and HS746T) (1×10^3 to 1×10^4 cells/well), described in Example 1-1 above, was cultured in a 100 mm culture dish for 24 hours, and treated with 0 or 10 μM of gossypol, and then further cultured for 24 hours. The cells treated with gossypol were harvested, fixed with 70% ethanol, washed with cold 1×PBS, and then stained with PI+RNase solution (DPBS, pH 7.4) in a dark room for 30 minutes. The cells were subjected to fluorescence activated cell sorting (FACS), and the percentage of each cell cycle was analyzed based on the content of DNA.

HS746T [9] = experiment: Cell cycle analysis, PI staining, FACS; assay type: cell-based, Human; conditions: 10 μM gossypol, 24 hours
Experimental: as §4

MKN28 [10] = experiment: Cell cycle analysis, PI staining, FACS; assay type: cell-based, Human; conditions: 10 μM gossypol, 24 hours
Experimental: as §4

MKN45 [11] = experiment: Cell cycle analysis, PI staining, FACS; assay type: cell-based, Human; conditions: 10 μM gossypol, 24 hours
Experimental: as §4

MKN-1 = experiment: Proliferation inhibition of stomach cancer stem cells, sulforhodamine B assay; assay type: cell-based; conditions: Homo sapiens; MKN-1 stomach cancer stem cells; 48 hours; read-out: IC50 concentration
Experimental: (§5) First, in order to examine the growth inhibitory effect of gossypol against stomach cancer stem cells, two types of common stomach cancer cells (AGS and MKN-74) and two types of stomach cancer stem cells (MKN-1 and SNU-484) were prepared. Each type of cells was cultured in a 96-well plate at a density of 1×10^3 to 1×10^4 cells/well for 24 hours, and treated with 0, 10, 20, 40 or 60 μM of gossypol, and then further cultured for 48 hours. […] Based on the measured absorbance, the IC50 concentration of gossypol, at which the survival rate of each type of cells, is measured, and the results are shown in FIGS. 6 and 7.

SNU-484 = experiment: as above; assay type: cell-based; conditions: SNU-484 stomach cancer stem cells; 48 hours; read-out: IC50 concentration
Experimental: as §5

AGS [12] = experiment: Proliferation inhibition of common stomach cancer cells, sulforhodamine B assay; assay type: cell-based; conditions: Homo sapiens, 48 hours, read-out: IC50 concentration
Experimental: as §5

MKN-74 = experiment: as above; assay type: cell-based; conditions: Homo sapiens; MKN-74 common stomach cancer cells; 48 hours; read-out: IC50 concentration
Experimental: as §5

[13] = system: stomach cancer stem cells (MKN-1 and SNU-484); experiment: Proliferation inhibition, average over stomach cancer stem cells; assay type: cell-based; conditions: average of MKN-1 and SNU-484; read-out: IC50 concentration, average
Experimental: as §5

[14] = system: common stomach cancer cells (MKN-74 and AGS); experiment: Proliferation inhibition, average over common stomach cancer cells; assay type: cell-based; conditions: Homo sapiens; average of MKN-74 and AGS; read-out: IC50 concentration, average
Experimental: as §5

PAGS (parental AGS) = experiment: Proliferation inhibition, parental AGS cells; assay type: cell-based; conditions: Homo sapiens, read-out: IC50 concentration
Experimental: as §5
(§6) On selected AGS cells (hereinafter referred to as SAGS (selected AGS), Cell Death Dis. 2015 Jul. 2; 6:e1805) selected from the common stomach cancer cell line AGS (hereinafter referred to as PAGS (parental AGS)) by analyzing phenotypes, including the cancer stem cell marker expression, tumor spheroid formation and standard anticancer agent resistance of cancer cells that survived under 4 weeks of continuous metabolic stress, and tumor formation in immunosuppressed mice, the growth inhibitory effects of gossypol were examined. Cell culture and survival rate measurement methods were performed in the same manner as Example 2-1.

SAGS (selected AGS) = experiment: Proliferation inhibition, selected AGS cells with the nature of cancer stem cells; assay type: cell-based; conditions: Homo sapiens, read-out: IC50 concentration
Experimental: as §5, §6

## Cc1cc2c(C(C)C)c(O)c(O)c(C=O)c2c(O)c1-c1c(C)cc2c(C(C)C)c(O)c(O)c(C=O)c2c1O [gossypol]
AGS [1]
  GI50: 6.43 µM
HS746T [2]
  GI50: 9.89 µM
Kato3
  GI50: 3.15 µM
MKN28 [3]
  GI50: 5.32 µM
MKN45 [4]
  GI50: 4.65 µM
SNU668
  GI50: 4.11 µM
[5]
  ATP synthesis: inhibited in proportion to the concentration of gossypol
[6]; 5 μM gossypol
  cell death percentage: 17.72%
[6]; 10 μM gossypol
  cell death percentage: 28.85%
[6]; 20 μM gossypol
  cell death percentage: 55.62%
[7]; 5 μM gossypol
  cell death percentage: 45.75%
[7]; 10 μM gossypol
  cell death percentage: 65.8%
[7]; 20 μM gossypol
  cell death percentage: 82.22%
AGS [8]
  sum of sub G1 and GO/G1 compared to before treatment: increased
HS746T [9]
  sum of sub G1 and GO/G1 compared to before treatment: increased
MKN28 [10]
  sum of sub G1 and GO/G1 compared to before treatment: decreased
MKN45 [11]
  sum of sub G1 and GO/G1 compared to before treatment: increased
MKN-1
  IC50: 2.6 µM
SNU-484
  IC50: 2.7 µM
AGS [12]
  IC50: 4.5 µM
MKN-74
  IC50: 5.6 µM
[13]
  IC50: 2.65 µM
[14]
  IC50: 5.05 µM
PAGS (parental AGS)
  IC50: 4.2 µM
SAGS (selected AGS)
  IC50: 2.8 µM

— patent US10864178B2, “Pharmaceutical composition for treatment of cancer containing polyphenol compound as active ingredient” (priority 2016, dated 2020)
